Here are results for one compound from the NIST ThermoML archive (doi:10.1021/acs.jced.5b00880).

The conditions of this series: Crystal; DTA.

± gives the expanded uncertainty stated by the source.

Turning to `O=C(O)CCCCC(=O)O` [1,6-hexanedioic acid], the Normal melting temperature stood at 152.4 ± 1.1 °C.
